One assay deals with diabetic patients. To be noted: mean age 77 years, 12-month administration; cited from earlier work.
The target of a further assay is T1, SGLT2 (Homo sapiens, UniProt P31639).
T1 sequence (P31639 1-672): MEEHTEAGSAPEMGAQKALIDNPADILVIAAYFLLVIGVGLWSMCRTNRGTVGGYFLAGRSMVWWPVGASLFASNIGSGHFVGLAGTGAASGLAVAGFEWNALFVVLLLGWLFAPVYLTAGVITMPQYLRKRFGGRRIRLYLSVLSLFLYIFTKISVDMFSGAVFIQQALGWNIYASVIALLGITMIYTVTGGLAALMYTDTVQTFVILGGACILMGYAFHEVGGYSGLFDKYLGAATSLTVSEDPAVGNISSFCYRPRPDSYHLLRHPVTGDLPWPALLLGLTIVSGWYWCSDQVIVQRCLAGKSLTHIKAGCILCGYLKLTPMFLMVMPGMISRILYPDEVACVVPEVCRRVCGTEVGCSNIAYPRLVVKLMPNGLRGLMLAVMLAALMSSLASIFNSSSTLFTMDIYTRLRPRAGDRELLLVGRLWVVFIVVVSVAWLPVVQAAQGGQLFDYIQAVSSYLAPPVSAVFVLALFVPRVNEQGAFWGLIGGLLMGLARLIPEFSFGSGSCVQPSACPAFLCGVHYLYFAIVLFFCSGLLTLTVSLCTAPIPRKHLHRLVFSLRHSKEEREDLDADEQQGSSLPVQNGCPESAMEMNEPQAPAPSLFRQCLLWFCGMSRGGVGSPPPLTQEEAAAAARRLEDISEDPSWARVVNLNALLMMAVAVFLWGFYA
To be noted: among the three FDA approved drugs; cited from earlier work.

The test system of another assay is diabetic mice. The settings on record: cited from earlier work.
The test system of assay [1] is T2DN rats. As to the kind of experiment: Eight-arm radial water maze test of spatial learning and memory. It is filed as in vivo, rat. To be noted: DM (T2DN) rats, tests 2, 24, 48 and 72 hours post training; FIG. 8. As to the method:
Unless otherwise indicated, all experiments using SGLT2 inhibitors were performed on 18-month old male Sprague Dawley (SD) and 14-month old […] rats, a genetic rat model of type II diabetes. Outbred SD rats purchased from Charles River were used as a nondiabetic control rat since identical genotypes are not necessary for this study. […] rats were prepared according to Diabetes, vol. 53, March 2004, pages 735-742. […] Treatment with an SGLT2 inhibitor began at 14-months of age and lasted for 4 months to determine whether control of hyperglycemia can slow the progression of cognitive dysfunction. Rats received either a vehicle or the SGLT2 inhibitor, luseogliflozin, at a dose of 20 mg/kg/day via drinking water. The SD rats were used as control. […] The rats are trained to identify a platform marked with a visual cue in one of the 8 arms of the pool to escape. Four memory trials are performed at 2, 24, 48 and 72 hrs after the training, which consist of 4 consecutive swims. The time to reach the platform (latency), the number of errors, distance traveled and swim speed were recorded (Nat Protoc 1: 1671-1679, 2006). Control, DM and DM luseogliflozin treated rats were trained on the first day to recognize the platform located in one of the eight arms to escape, and repeated tests were performed 2, 24, 48, and 72 hours post training. The time taken by the rats to reach the platform was recorded. […]

The test system of assay [2] is middle cerebral artery of T2DN rats. As to the kind of experiment: Pressure-induced myogenic response of isolated middle cerebral artery. It is filed as ex vivo, rat. To be noted: aged T2DN rats, 20 mg/kg/day via drinking water for 4 months; FIG. 4. The source says: To measure the myogenic response of cerebral arteries, a section of the brain containing middle cerebral artery (MCA) was dissected and immediately placed in Tyrode's solution. A branch of the MCA was microdissected and cannulated with glass pipettes in a pressure myograph chamber filled with a physiologic salt solution (PSS). The vessels were equilibrated at a transmural pressure of 40 mmHg to develop spontaneous tone. After preconditioning, the inner diameter (ID) of MCA in response to intraluminal pressures ranging from 40 to 180 mmHg in steps of 20 mmHg was measured to access the myogenic response. Then, a passive pressure-diameter relationship was determined by replacing the bath solution with calcium-free PSS. The myogenic reactivity in response to an elevation in perfusion pressure was calculated by the formula: IDpressure/D40 mmHg×100(%). […] Next the effect of SGLT2 inhibitor was examined in the treatment of impaired myogenic response and autoregulation of cerebral blood flow was determined. […] The myogenic reactivity in response to an elevation in perfusion pressure was calculated by the formula: Dpressure/ID60 mmHg×100(%). […] After a 10-min equilibration period, baseline CBF was measured at 100 mmHg. […] CBF was measured at each step when the MAP reached a steady state. The infusion of phenylephrine was then stopped which allowed MAP to return to 100 mmHg, and CBF was re-recorded. […]

The test system of assay [3] is T2DN rats. The assay can be described thus: Blood-brain barrier leakage by Evans blue dye. Type of assay: in vivo, rat. To be noted: aged T2DN rats, long-term treatment, MAP 180 mmHg for 1 hour; FIG. 6. The procedure:
Unless otherwise indicated, all experiments using SGLT2 inhibitors were performed on 18-month old male Sprague Dawley (SD) and 14-month old […] rats, a genetic rat model of type II diabetes. Outbred SD rats purchased from Charles River were used as a nondiabetic control rat since identical genotypes are not necessary for this study. […] rats were prepared according to Diabetes, vol. 53, March 2004, pages 735-742. […] Treatment with an SGLT2 inhibitor began at 14-months of age and lasted for 4 months to determine whether control of hyperglycemia can slow the progression of cognitive dysfunction. Rats received either a vehicle or the SGLT2 inhibitor, luseogliflozin, at a dose of 20 mg/kg/day via drinking water. The SD rats were used as control. To determine the impact of higher cerebral blood flow with extended middle cerebral artery diameters on the brain, the brains of SGLT2-treated and untreated rats were assessed for blood brain leakage (BBB). Evans blue (EB) dye was used to compare the degree of BBB leakage. EB was injected via the femoral vein, and MAP was maintained at 180 mmHg for 1 hour by adjusting the infusion rate of phenylephrine. […] The brain was then homogenized and BBB leakage was quantitated using a fluorescent microplate reader at excitation and emission wavelengths of 620 nm and 680 nm.

In assay [4] the test system is T2DN rats. The assay can be described thus: Autoregulation of cerebral blood flow (laser Doppler flowmetry). The settings on record: aged T2DN rats, 20 mg/kg/day via drinking water for 4 months; FIG. 5. It is filed as in vivo, rat. The procedure: Measurements of arterial pressure and cortical blood flow (CBF) were performed by inserting cannulas in the femoral artery and vein for drug delivery and monitoring the mean arterial pressure (MAP). A closed cranial window was prepared on both sides of the brain by thinning the bone using a dental drill until the vessels on the surface of the brain could be visualized. Cortical blood flow (CBF) was measured using a laser Doppler flowmeter (LDF). Unless otherwise indicated, all experiments using SGLT2 inhibitors were performed on 18-month old male Sprague Dawley (SD) and 14-month old […] rats, a genetic rat model of type II diabetes. […] Next the effect of SGLT2 inhibitor was examined in the treatment of impaired myogenic response and autoregulation of cerebral blood flow was determined. […] The myogenic reactivity in response to an elevation in perfusion pressure was calculated by the formula: Dpressure/ID60 mmHg×100(%). […] After a 10-min equilibration period, baseline CBF was measured at 100 mmHg. […] CBF was measured at each step when the MAP reached a steady state. The infusion of phenylephrine was then stopped which allowed MAP to return to 100 mmHg, and CBF was re-recorded. […] Percentage change of CBF was calculated by the formula: [(CBFMAP-CBFbaseline)/CBFbaseline]×100(%).

The test system of assay [5] is T2DN rats. As to the kind of experiment: Functional hyperemia (neurovascular coupling) in response to whisker stimulation. It is filed as in vivo, rat. To be noted: old diabetic T2DN rats, whisker stimulation 10 Hz for 60 seconds; FIG. 7. As to the method:
Unless otherwise indicated, all experiments using SGLT2 inhibitors were performed on 18-month old male Sprague Dawley (SD) and 14-month old […] rats, a genetic rat model of type II diabetes. Outbred SD rats purchased from Charles River were used as a nondiabetic control rat since identical genotypes are not necessary for this study. […] rats were prepared according to Diabetes, vol. 53, March 2004, pages 735-742. […] Treatment with an SGLT2 inhibitor began at 14-months of age and lasted for 4 months to determine whether control of hyperglycemia can slow the progression of cognitive dysfunction. Rats received either a vehicle or the SGLT2 inhibitor, luseogliflozin, at a dose of 20 mg/kg/day via drinking water. The SD rats were used as control. […] In these studies, neurovascular coupling (NVC) responses were investigated prior to cerebral autoregulation study. […] Cortical blood flow (CBF) was measured using a laser Doppler flowmeter ([…] probe was placed above somatosensory cortex for the recording of LDF signal change (CBFchange). Percentage changes in CBF at various perfusion pressures vs. CBF at perfusion pressure of 100 mmHg were determined in response to whisker stimulation.

The subject of assay [6] is T2DN rats. As to the kind of experiment: Plasma glucose and HbA1c levels in aged diabetic T2DN rats during drug treatment. It is filed as in vivo, rat. To be noted: 20 mg/kg/day via drinking water, from 14 months of age for 4 months, FIG. 3. As to the method: Unless otherwise indicated, all experiments using SGLT2 inhibitors were performed on 18-month old male Sprague Dawley (SD) and 14-month old […] rats, a genetic rat model of type II diabetes. Outbred SD rats purchased from Charles River were used as a nondiabetic control rat since identical genotypes are not necessary for this study. […] rats were prepared according to Diabetes, vol. 53, March 2004, pages 735-742. […] Treatment with an SGLT2 inhibitor began at 14-months of age and lasted for 4 months to determine whether control of hyperglycemia can slow the progression of cognitive dysfunction. Rats received either a vehicle or the SGLT2 inhibitor, luseogliflozin, at a dose of 20 mg/kg/day via drinking water. The SD rats were used as control. The levels of plasma glucose and HbA1c were measured by drawing a drop of blood from the tail vein during drug treatment and using traditional analytical methods to determine the concentration of plasma glucose and HbA1c.

The source of these data is patent US20210059984A1, “METHOD AND COMPOSITION FOR REVERSING COGNITIVE IMPAIRMENTS AND LOSS USING SGLT2 INHIBITORS” (TAISHO PHARMACEUTICAL CO., LTD., priority 2019, published 2021).

As to `Cc1ccc([C@@H]2O[C@H](CO)[C@@H](O)[C@H](O)[C@H]2O)cc1Cc1ccc(-c2ccc(F)cc2)s1` [canagliflozin], in the assay on diabetic patients, the “cognitive functions (cognitive performance)” value is “no worsening of their cognitive functions”. Moreover, the “selectivity for SGLT2 compared to SGLT1” value at SGLT2 is on record as “least selective”.
For `OC[C@H]1O[C@@H](c2ccc(Cl)c(Cc3ccc(O[C@H]4CCOC4)cc3)c2)[C@H](O)[C@@H](O)[C@@H]1O` [empagliflozin], the “cognitive functions (cognitive performance)” value in the assay with diabetic patients was “no worsening of their cognitive functions”. Besides, the “selectivity for SGLT2 compared to SGLT1” value on SGLT2 is “greatest selectivity”. Besides, the cognitive function result in the assay with diabetic mice was “cognitive function improving effect”.
`CCOc1ccc(Cc2cc([C@@H]3S[C@H](CO)[C@@H](O)[C@H](O)[C@H]3O)c(OC)cc2C)cc1` [luseogliflozin]: the “escape time (time to reach the platform), cognitive performance” value in the assay on T2DN rats [1] is “reduced escape time similar to normal rats”. In addition, the “diameters of middle cerebral artery upon exposure to higher perfusion pressures (myogenic response)” value in assay [2] is “completely reversed the increase in the diameters of middle cerebral artery”. Besides, in the assay on T2DN rats [3], the “blood brain barrier damage (Evans blue leakage)” value is “completely reversed the blood brain barrier damage”. For the same molecule, the “cerebral blood flow on elevation of MAP (autoregulation)” value in the assay with T2DN rats [4] is listed as “restored to normal levels”. Moreover, the “functional hyperemia in response to whisker stimulation” value with T2DN rats [5] is “restored”. In the assay on T2DN rats [6], the “levels of HbA1c” value is “reduced both the levels of plasma glucose and HbA1c to near normal”; the “levels of plasma glucose” value was “reduced both the levels of plasma glucose and HbA1c to near normal”.
